From ChEMBL document CHEMBL1201862, “PubChem BioAssay data set” (2004)
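Step 1: Grow cells in 96-well plates. Step 2: Expose to compound for 48 hours at 5 concentrations. Step 3: Interpolate endpoints linearly; if unreached, use highest concentration. Abbreviation: GI50, concentration required for 50% inhibition of growth.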 Calls of active or inactive are those of the source. Rule as the data show it: active = GI50 up to about 1.1 µM and inactive = higher.

Assays:
Experiment in all cases: DTP human tumour cell line panel, 48 h
[1] = system: DMS-114
[2] = system: HCT-15
[3] = system: HL-60
[4] = system: HT-29
[5] = system: IGROV-1
[6] = system: KM12
[7] = system: LOX IMVI
[8] = system: NCI-H23
[9] = system: NCI-H460
[10] = system: NCI-H522
[11] = system: OVCAR-4
[12] = system: RPMI-8226
[13] = system: SF-268
[14] = system: SR
[15] = system: U-251
[16] = system: UO-31
[17] = system: BT-549
[18] = system: Hs-578T
[19] = system: MDA-MB-231
[20] = system: T47D

Row | Compound | GI50 [1] | GI50 [2] | GI50 [3] | GI50 [4] | GI50 [5] | GI50 [6] | GI50 [7] | GI50 [8] | GI50 [9] | GI50 [10] | GI50 [11] | GI50 [12] | GI50 [13] | GI50 [14] | GI50 [15] | GI50 [16] | GI50 [17] | GI50 [18] | GI50 [19] | GI50 [20]
1 | CC(=O)OCC(=O)[C@@]1(O)CC[C@H]2[C@@H]3CCC4=CC(=O)[C@H](C)C[C@]4(C)[C@H]3[C@@H](O)C[C@@]21C | > 100 µM (inactive) | > 100 µM | > 100 µM (inactive) | > 100 µM (inactive) | > 100 µM (inactive) | > 100 µM (inactive) | > 100 µM (inactive) | > 100 µM (inactive) | > 100 µM (inactive) | > 100 µM (inactive) | > 100 µM (inactive) | > 100 µM (inactive) | > 100 µM (inactive) | > 100 µM (inactive) | > 100 µM (inactive) |  |  |  |  | 
2 | CN(C)CC1CCC(=C2CCCC2)C1=O (centres undefined) | 8.81 µM (inactive) | 5.65 µM | 3.51 µM (inactive) | 12.5 µM (inactive) | 17.6 µM (inactive) | 10.9 µM (inactive) | 16.6 µM (inactive) | 20 µM (inactive) | 21.7 µM (inactive) | 1.71 µM (inactive) | 16.7 µM (inactive) | 0.859 µM (active) | 12.4 µM (inactive) | 4.47 µM (inactive) | > 10 µM (inactive) | 18.3 µM (inactive) |  |  |  | 
3 | O=C[C@@H](CO)O[C@H](C=O)c1c[nH]c(=O)[nH]c1=O | 37.6 µM (inactive) | 57.8 µM | 22.3 µM (inactive) | 107 µM (inactive) | 81.1 µM (inactive) | 93.3 µM (inactive) | 93.8 µM (inactive) | 69.3 µM (inactive) | 105 µM (inactive) | 70.1 µM (inactive) | 83.9 µM (inactive) | 53.8 µM (inactive) | 102 µM (inactive) | 35.6 µM (inactive) | 143 µM (inactive) | 88.5 µM (inactive) | 79.1 µM (inactive) | 100 µM (inactive) | 74.1 µM (inactive) | 73.6 µM (inactive)
4 | Cc1ccc2ccc3ccc(C)nc3c2n1 [NEOCUPROINE] | 0.388 µM (active) | > 71.6 µM | 0.353 µM (active) | 0.908 µM (active) | 0.429 µM (active) | 12.5 µM (inactive) | 4.09 µM (inactive) | 0.439 µM (active) | 2.19 µM (inactive) | 74.3 µM (inactive) |  | > 100 µM (inactive) | > 87.9 µM (inactive) | 0.728 µM (active) | 7.31 µM (inactive) | > 76.2 µM (inactive) | > 100 µM (inactive) | > 100 µM (inactive) | 5.62 µM (inactive) | 1.06 µM (active)
5 | COC(=O)C1(F)C(=O)NC(=O)NC1OC (centres undefined) | 73.3 µM (inactive) | 22.9 µM | 3.09 µM (inactive) | 22.2 µM (inactive) | > 100 µM (inactive) | 21.6 µM (inactive) | 11.9 µM (inactive) | 30.3 µM (inactive) | 3.52 µM (inactive) | 75.5 µM (inactive) | > 100 µM (inactive) | 90.6 µM (inactive) | 45.4 µM (inactive) | > 100 µM (inactive) | 24.5 µM (inactive) | 70.8 µM (inactive) |  |  |  | 
6 | COC(=O)C1=C(c2ccc(Cl)cc2)C(O)NC(NN)=N1 (centres undefined) | > 100 µM (inactive) | > 100 µM | > 100 µM (inactive) | > 100 µM (inactive) | > 100 µM (inactive) | > 100 µM (inactive) | > 100 µM (inactive) | > 100 µM (inactive) | > 100 µM (inactive) | > 100 µM (inactive) | > 100 µM (inactive) | > 100 µM (inactive) | > 100 µM (inactive) | > 100 µM (inactive) | > 100 µM (inactive) | > 100 µM (inactive) |  |  |  | 
7 | O=C1c2ccccc2C(Br)(Br)c2ccccc21 | > 31.6 µM (inactive) | > 31.6 µM | > 31.6 µM (inactive) | > 100 µM (inactive) | > 31.6 µM (inactive) | > 100 µM (inactive) | > 31.6 µM (inactive) | > 100 µM (inactive) | > 31.6 µM (inactive) | 25.4 µM (inactive) | 1.16 µM (inactive) | > 10 µM (inactive) | 25.5 µM (inactive) | > 31.6 µM (inactive) | > 31.6 µM (inactive) | > 31.6 µM (inactive) |  |  |  | 
8 | CCN(CC)CCCC(C)Nc1c2ccc(Cl)cc2nc2ccc(OC)cc12 (centres undefined) | 1.7 µM (inactive) | 2.29 µM | 2.03 µM (inactive) | 1.03 µM (active) | 1.76 µM (inactive) | 1.63 µM (inactive) | 1.07 µM (active) | 1.61 µM (inactive) | 0.673 µM (active) | 1.35 µM (inactive) | 1.65 µM (inactive) | 2.05 µM (inactive) | 2.24 µM (inactive) | 0.895 µM (active) | 1.29 µM (inactive) | 2.08 µM (inactive) | 2.47 µM (inactive) | 3.37 µM (inactive) | 10.1 µM (inactive) | 2.31 µM (inactive)
9 | CCCC(O)[C@@]1(CC)CC(C)C(O)(C2(C)C[C@H](C)[C@@H](C(CC)C(=O)C(C)[C@@H](O)[C@H](C)C3OC(O)(C(CC)C(=O)O)[C@@H](C)C(O)C3CC)O2)O1 (some centres undefined) | 0.0279 µM (active) | 1.16 µM | 0.0228 µM (active) | 0.557 µM (active) | 1.24 µM (inactive) | 0.451 µM (active) | 0.19 µM (active) | 0.129 µM (active) | 0.191 µM (active) | 0.0211 µM (active) | 0.594 µM (active) | 0.0989 µM (active) | 0.284 µM (active) | < 0.01 µM (active) | 0.184 µM (active) | 1.01 µM (active) | 0.0512 µM (active) | 0.267 µM (active) | 0.492 µM (active) | 
10 | Cc1ccc2c(c1)C(c1cccc3ccccc13)OC2=O (centres undefined) | > 100 µM (inactive) | > 100 µM | > 100 µM (inactive) | > 100 µM (inactive) | > 100 µM (inactive) | 99.1 µM (inactive) | > 100 µM (inactive) | 75.9 µM (inactive) | > 100 µM (inactive) | > 100 µM (inactive) | 35 µM (inactive) |  | > 100 µM (inactive) | > 100 µM (inactive) | 58.2 µM (inactive) | > 100 µM (inactive) |  |  |  | 
11 | CCCCC#COP(=O)(OCC)OCC | > 100 µM (inactive) | > 100 µM | > 100 µM (inactive) | > 100 µM (inactive) | > 100 µM (inactive) | > 100 µM (inactive) | > 100 µM (inactive) | > 100 µM (inactive) | > 100 µM (inactive) | > 100 µM (inactive) | > 100 µM (inactive) | > 100 µM (inactive) | > 100 µM (inactive) | > 100 µM (inactive) | > 100 µM (inactive) | > 100 µM (inactive) |  |  |  | 
12 | Cc1ccccc1/N=C/c1ccc(N(CCC#N)S(=O)(=O)c2ccccc2)cc1 | > 100 µM (inactive) | > 100 µM | 32.4 µM (inactive) | > 100 µM (inactive) | > 100 µM (inactive) | > 100 µM (inactive) | > 100 µM (inactive) | > 100 µM (inactive) | > 100 µM (inactive) | 70.1 µM (inactive) | > 100 µM (inactive) | > 100 µM (inactive) | > 100 µM (inactive) | > 100 µM (inactive) | > 100 µM (inactive) | > 100 µM (inactive) |  |  |  | 
